Assay results taken from ChEMBL document CHEMBL1781973, “Novel and Potent 5-Piperazinyl Methyl-N 1-aryl Sulfonyl Indole Derivatives as 5-HT6 Receptor Ligands” (ACS Med Chem Lett, 2010).
Active and inactive are the calls of the source. No cut-off for these calls is given here.

How the values were obtained:
[1] = molecular target: 5-hydroxytryptamine receptor 6 (Homo sapiens, UniProt P50406); experiment: biochemical
Description: Displacement of [3H]LSD from human 5HT6 receptor expressed in HEK293 cells

[2] = molecular target: T1, CYP1A2 (Homo sapiens, UniProt P05177); experiment: Inhibition of human CYP1A2 at 3 uM; type: ADME
T1 sequence (P05177 whole entry): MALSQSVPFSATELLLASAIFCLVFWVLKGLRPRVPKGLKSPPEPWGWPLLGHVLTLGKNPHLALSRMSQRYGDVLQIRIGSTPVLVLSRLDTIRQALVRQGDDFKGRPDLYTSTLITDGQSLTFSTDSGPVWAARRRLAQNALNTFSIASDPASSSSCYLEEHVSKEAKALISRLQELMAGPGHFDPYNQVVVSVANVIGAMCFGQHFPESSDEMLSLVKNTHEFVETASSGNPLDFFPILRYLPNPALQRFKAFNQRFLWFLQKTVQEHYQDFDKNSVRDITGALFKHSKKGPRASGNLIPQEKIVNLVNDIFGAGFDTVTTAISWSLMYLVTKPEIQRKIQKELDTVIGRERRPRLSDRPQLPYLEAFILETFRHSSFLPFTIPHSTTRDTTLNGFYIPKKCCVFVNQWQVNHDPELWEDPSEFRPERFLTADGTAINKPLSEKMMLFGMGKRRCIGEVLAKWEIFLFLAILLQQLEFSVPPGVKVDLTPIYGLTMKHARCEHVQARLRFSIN

[3] = tested on: CYP2C9*1; experiment: Inhibition of human CYP2C9*1 at 3 uM; type: ADME
[4] = molecular target: T2, CYP2C19 (Homo sapiens, UniProt P33261); experiment: Inhibition of human CYP2C19 at 10 uM; type: ADME
[5] = molecular target: T3, CYP2D6 (Homo sapiens, UniProt P10635); experiment: Inhibition of human CYP2D6 at 3 uM; type: ADME
[6] = tested on: CYP2C9*1; experiment: Inhibition of human CYP2C9*1 at 10 uM; type: ADME
[7] = molecular target: T4, CYP3A4 (Homo sapiens, UniProt P08684); experiment: Inhibition of human CYP3A4 at 10 uM; type: ADME
[8] = molecular target: T1, CYP1A2; experiment: Inhibition of human CYP1A2 at 10 uM; type: ADME
[9] = molecular target: T2, CYP2C19; experiment: Inhibition of human CYP2C19 at 3 uM; type: ADME
[10] = molecular target: T4, CYP3A4; experiment: Inhibition of human CYP3A4 at 3 uM; type: ADME
[11] = molecular target: T5, CYP2A6 (Homo sapiens, UniProt P11509); experiment: Inhibition of human CYP2A6 at 10 uM; type: ADME
T5 sequence (P11509 whole entry): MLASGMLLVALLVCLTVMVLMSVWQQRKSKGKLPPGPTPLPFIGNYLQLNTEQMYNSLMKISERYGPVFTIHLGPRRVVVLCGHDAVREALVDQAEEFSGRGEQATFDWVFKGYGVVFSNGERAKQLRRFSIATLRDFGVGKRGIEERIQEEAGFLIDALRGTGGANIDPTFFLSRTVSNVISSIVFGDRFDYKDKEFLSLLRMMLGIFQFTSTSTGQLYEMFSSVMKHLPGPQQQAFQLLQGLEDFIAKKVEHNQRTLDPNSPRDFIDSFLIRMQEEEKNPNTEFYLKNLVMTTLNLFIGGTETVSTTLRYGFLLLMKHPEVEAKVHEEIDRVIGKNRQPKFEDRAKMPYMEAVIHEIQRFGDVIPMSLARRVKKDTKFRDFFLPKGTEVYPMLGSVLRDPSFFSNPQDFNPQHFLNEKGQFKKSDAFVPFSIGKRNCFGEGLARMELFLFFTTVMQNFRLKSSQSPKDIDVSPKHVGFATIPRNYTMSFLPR

[12] = molecular target: T3, CYP2D6; experiment: Inhibition of human CYP2D6 at 10 uM; type: ADME
[13] = molecular target: T5, CYP2A6; experiment: Inhibition of human CYP2A6 at 3 uM; type: ADME
[14] = molecular target: 5-hydroxytryptamine receptor 7 (Homo sapiens, UniProt P34969); experiment: Inhibition of human 5HT7 receptor expressed in CHO cells after 5 hrs by luciferase reporter assay; type: cell-based
[15] = Cmax in fasted Wistar rat at 10 mg/kg, po; type: ADME, organism-based; parameters: dose 10 mg/kg, route oral; settings: in vivo
[16] = Half life in fasted Wistar rat at 10 mg/kg, iv; type: ADME, organism-based; parameters: dose 10 mg/kg, route intravenous; settings: in vivo
[17] = Clearance in fasted Wistar rat at 10 mg/kg, iv; type: ADME, organism-based; parameters: dose 10 mg/kg, route intravenous; settings: in vivo
[18] = tested on: Rattus norvegicus; experiment: Cognitive enhancing effect against scopolamine-induced memory deficit in Wistar rat at 30 mg/kg, po administered 60 mins before acquisition training measured after 5 days by Morris water maze test; type: functional, organism-based; parameters: dose 30 mg/kg
[19] = tested on: Rattus norvegicus; experiment: Cognitive enhancing effect against scopolamine-induced memory deficit in Wistar rat at 10 mg/kg, po by novel object recognition test; type: functional, organism-based; parameters: dose 10 mg/kg
[20] = Clearance in fasted Wistar rat at 10 mg/kg, po; type: ADME, organism-based; parameters: dose 10 mg/kg, route oral; settings: in vivo
[21] = Cmax in fasted Wistar rat at 10 mg/kg, iv; type: ADME, organism-based; parameters: dose 10 mg/kg, route intravenous; settings: in vivo
[22] = Half life in fasted Wistar rat at 10 mg/kg, po; type: ADME, organism-based; parameters: dose 10 mg/kg, route oral; settings: in vivo
[23] = Oral bioavailability in fasted Wistar rat; type: ADME, organism-based; settings: in vivo
[24] = AUCt in fasted Wistar rat at 10 mg/kg, po; type: ADME, organism-based; parameters: dose 10 mg/kg, route oral; settings: plasma
[25] = Apparent volume of distribution in fasted Wistar rat at 10 mg/kg, iv; type: ADME, organism-based; parameters: dose 10 mg/kg, route intravenous; settings: in vivo, read-out: Vz
[26] = Ratio of drug level at steady state in brain to plasma in fasted Wistar rat; type: ADME; settings: read-out: BPR
[27] = molecular target: T6, Muscarinic acetylcholine receptor M1 (Homo sapiens, UniProt P11229); experiment: Inhibition of human muscarinic M1 receptor expressed in CHO cells after 5 hrs by luciferase reporter assay; type: cell-based
T6 sequence (P11229 whole entry): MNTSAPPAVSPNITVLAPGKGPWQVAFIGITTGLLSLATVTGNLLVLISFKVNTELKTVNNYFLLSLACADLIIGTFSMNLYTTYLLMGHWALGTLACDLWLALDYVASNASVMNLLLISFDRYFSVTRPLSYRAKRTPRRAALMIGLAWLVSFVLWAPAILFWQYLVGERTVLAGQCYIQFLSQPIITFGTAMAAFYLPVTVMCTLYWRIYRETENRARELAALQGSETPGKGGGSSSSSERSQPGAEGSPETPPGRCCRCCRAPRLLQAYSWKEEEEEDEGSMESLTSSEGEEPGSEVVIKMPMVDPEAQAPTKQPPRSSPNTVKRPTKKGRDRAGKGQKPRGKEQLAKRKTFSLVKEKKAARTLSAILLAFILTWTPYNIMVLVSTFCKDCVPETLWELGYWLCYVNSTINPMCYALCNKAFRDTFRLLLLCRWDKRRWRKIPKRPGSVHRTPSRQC

[28] = tested on: Rattus norvegicus; experiment: Apparent volume of distribution in fasted Wistar rat at 10 mg/kg, po; type: ADME, organism-based; parameters: dose 10 mg/kg, route oral; settings: in vivo
[29] = molecular target: 5-hydroxytryptamine receptor 4 (Homo sapiens, UniProt Q13639); experiment: Inhibition of human 5HT4 receptor expressed in CHO cells after 5 hrs by luciferase reporter assay; type: cell-based
[30] = AUCt in fasted Wistar rat at 10 mg/kg, iv; type: ADME, organism-based; parameters: dose 10 mg/kg, route intravenous; settings: plasma

Chain of 5-hydroxytryptamine receptor 6 (P50406 whole entry): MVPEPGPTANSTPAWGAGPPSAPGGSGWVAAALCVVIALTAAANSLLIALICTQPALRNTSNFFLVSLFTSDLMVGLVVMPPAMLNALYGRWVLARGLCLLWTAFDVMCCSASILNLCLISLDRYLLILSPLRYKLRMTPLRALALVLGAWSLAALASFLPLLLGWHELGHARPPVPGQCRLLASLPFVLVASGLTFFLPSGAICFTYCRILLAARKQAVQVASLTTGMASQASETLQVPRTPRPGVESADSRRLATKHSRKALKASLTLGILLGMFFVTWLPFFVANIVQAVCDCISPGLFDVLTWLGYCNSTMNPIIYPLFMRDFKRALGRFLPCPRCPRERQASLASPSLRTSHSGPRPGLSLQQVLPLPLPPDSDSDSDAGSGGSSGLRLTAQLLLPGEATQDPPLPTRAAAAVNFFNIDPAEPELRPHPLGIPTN
T2 sequence (P33261 whole entry): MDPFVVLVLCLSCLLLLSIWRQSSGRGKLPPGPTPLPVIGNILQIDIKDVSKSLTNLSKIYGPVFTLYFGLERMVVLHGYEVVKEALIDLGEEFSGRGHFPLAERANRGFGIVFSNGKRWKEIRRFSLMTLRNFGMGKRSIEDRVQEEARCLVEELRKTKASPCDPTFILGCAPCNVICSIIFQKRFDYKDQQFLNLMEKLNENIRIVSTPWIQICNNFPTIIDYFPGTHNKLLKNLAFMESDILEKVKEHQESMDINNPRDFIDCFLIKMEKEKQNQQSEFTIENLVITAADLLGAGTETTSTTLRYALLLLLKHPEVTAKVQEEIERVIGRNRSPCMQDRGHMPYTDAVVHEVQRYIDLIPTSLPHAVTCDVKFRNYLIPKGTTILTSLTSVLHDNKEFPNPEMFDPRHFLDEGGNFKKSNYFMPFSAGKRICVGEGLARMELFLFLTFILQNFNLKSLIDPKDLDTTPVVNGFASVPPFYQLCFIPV
T3 sequence (P10635 whole entry): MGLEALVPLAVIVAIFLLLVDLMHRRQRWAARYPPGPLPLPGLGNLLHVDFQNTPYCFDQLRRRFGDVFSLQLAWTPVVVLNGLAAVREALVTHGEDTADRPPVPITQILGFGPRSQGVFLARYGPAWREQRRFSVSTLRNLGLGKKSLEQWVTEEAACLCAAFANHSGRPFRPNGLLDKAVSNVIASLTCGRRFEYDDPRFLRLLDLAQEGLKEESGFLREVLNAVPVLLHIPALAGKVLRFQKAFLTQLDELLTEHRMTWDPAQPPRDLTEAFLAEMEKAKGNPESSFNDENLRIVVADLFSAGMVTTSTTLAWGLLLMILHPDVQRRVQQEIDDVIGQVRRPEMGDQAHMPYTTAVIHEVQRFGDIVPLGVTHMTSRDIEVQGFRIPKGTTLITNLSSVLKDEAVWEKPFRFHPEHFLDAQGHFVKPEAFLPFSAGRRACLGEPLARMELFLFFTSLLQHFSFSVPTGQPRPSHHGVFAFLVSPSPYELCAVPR
T4 sequence (P08684 whole entry): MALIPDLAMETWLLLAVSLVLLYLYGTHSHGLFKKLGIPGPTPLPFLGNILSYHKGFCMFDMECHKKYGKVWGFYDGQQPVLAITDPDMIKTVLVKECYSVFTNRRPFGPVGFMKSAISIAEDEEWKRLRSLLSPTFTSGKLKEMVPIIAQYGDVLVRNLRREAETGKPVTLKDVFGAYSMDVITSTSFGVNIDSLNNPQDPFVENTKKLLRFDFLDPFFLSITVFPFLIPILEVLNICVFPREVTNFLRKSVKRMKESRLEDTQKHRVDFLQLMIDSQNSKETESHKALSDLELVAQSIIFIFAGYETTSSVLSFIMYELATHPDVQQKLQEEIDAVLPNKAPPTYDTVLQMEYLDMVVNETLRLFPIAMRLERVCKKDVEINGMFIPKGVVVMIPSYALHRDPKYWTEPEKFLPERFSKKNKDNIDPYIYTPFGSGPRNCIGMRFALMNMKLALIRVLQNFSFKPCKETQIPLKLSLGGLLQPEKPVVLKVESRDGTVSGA
Chain of 5-hydroxytryptamine receptor 4 (Q13639 whole entry): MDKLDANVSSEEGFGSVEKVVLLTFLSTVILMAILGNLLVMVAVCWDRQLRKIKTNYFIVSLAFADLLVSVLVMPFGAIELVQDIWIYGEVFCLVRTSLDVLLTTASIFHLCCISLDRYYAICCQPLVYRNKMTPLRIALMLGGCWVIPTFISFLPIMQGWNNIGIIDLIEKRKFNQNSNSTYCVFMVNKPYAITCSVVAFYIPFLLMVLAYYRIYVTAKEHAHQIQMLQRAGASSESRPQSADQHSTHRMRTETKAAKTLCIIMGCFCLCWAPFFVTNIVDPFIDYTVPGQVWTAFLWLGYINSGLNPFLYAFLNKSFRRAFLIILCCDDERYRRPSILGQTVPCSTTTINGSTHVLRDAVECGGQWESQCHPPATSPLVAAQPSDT
Chain of 5-hydroxytryptamine receptor 7 (P34969 whole entry): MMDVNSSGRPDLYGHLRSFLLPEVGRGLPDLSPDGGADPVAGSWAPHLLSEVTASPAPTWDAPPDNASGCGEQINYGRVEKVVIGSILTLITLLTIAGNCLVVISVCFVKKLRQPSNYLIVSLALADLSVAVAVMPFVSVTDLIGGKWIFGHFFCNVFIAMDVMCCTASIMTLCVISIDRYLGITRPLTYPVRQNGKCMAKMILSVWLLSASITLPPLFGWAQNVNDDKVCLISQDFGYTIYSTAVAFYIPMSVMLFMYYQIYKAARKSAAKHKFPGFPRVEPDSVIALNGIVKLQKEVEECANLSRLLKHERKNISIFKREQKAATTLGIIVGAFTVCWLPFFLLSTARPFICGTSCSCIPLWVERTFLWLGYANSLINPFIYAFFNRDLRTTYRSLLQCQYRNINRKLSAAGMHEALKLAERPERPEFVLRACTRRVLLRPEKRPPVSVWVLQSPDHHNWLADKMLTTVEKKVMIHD

| Compound | Ki [1] | inhibition at 3 µM [2] | inhibition at 3 µM [3] | inhibition at 10 µM [4] | inhibition at 3 µM [5] | inhibition at 10 µM [6] | inhibition at 10 µM [7] | inhibition at 10 µM [8] | inhibition at 3 µM [9] | inhibition at 3 µM [10] | inhibition at 10 µM [11] | inhibition at 10 µM [12] | inhibition at 3 µM [13] | also measured |
| --- | --- | --- | --- | --- | --- | --- | --- | --- | --- | --- | --- | --- | --- | --- |
| O=S(=O)(c1ccc(F)cc1F)n1cc(Cl)c2cc(CN3CCNCC3)ccc21 | 5.57 nM | 14.5% | -12.6% | 72.9% | 1.46% | 27.8% | 45% | 14.6% | 31.9% | 26.4% | 6.37% | 17.7% | -3.62% |  |
| CN1CCN(Cc2ccc3c(c2)c(Cl)cn3S(=O)(=O)c2ccc(Cl)cc2)CC1 | 9.33 nM |  |  |  |  |  |  |  |  |  |  |  |  |  |
| CN1CCN(Cc2ccc3c(ccn3C(=O)c3ccccc3)c2)CC1 | > 1000 nM |  |  |  |  |  |  |  |  |  |  |  |  |  |
| CN1CCN(Cc2ccc3c(ccn3S(=O)(=O)c3cccc(C(F)(F)F)c3)c2)CC1 | 3.15 nM |  |  |  |  |  |  |  |  |  |  |  |  |  |
| CN1CCN(Cc2ccc3c(ccn3S(=O)(=O)c3ccccc3)c2)CC1 |  | 14.4% | -8.69% | 31.2% | 12% | 18.2% | 5.47% | 17.3% | 9.91% | 8.24% | 4.81% | 31.2% | -2.24% |  |
| CCN1CCN(Cc2ccc3c(ccn3Cc3ccccc3)c2)CC1 | > 1000 nM |  |  |  |  |  |  |  |  |  |  |  |  |  |
| CN1CCN(Cc2ccc3c(c2)c(Cl)cn3S(=O)(=O)c2ccc(F)cc2)CC1 |  | 3.4% | 6.42% | 21.5% | 6.42% | 9.13% | 39% | 26.9% | 10.1% | 2.6% | 19.8% | 15.2% | 14.1% | IC50 [14]: > 10000 nM; IC50 [27]: > 10000 nM; IC50 [29]: > 10000 nM |

The next lines start with results.

| Ki [1] | inhibition at 3 µM [2] | inhibition at 3 µM [3] | inhibition at 10 µM [4] | inhibition at 3 µM [5] | inhibition at 10 µM [6] | inhibition at 10 µM [7] | inhibition at 10 µM [8] | inhibition at 3 µM [9] | inhibition at 3 µM [10] | inhibition at 10 µM [11] | inhibition at 10 µM [12] | inhibition at 3 µM [13] | Compound | also measured |
| --- | --- | --- | --- | --- | --- | --- | --- | --- | --- | --- | --- | --- | --- | --- |
| 5.72 nM |  |  |  |  |  |  |  |  |  |  |  |  | CCN1CCN(Cc2ccc3c(ccn3S(=O)(=O)c3cccc(C(F)(F)F)c3)c2)CC1 |  |
|  | 13.7% | -14.3% | 4.7% | 10.3% | 19.6% | 34.2% | 8.34% | 6.75% | 18.6% | 10.2% | 46% | -7.74% | CCN1CCN(Cc2ccc3c(ccn3S(=O)(=O)c3ccc(F)cc3)c2)CC1 |  |
|  | 3.64% | 7.47% | 43.6% | 48.3% | 15.9% | 32.9% | 17.9% | 22.8% | -3.67% | 10.8% | 76.2% | -0.39% | CCN1CCN(Cc2ccc3c(ccn3S(=O)(=O)c3ccccc3Br)c2)CC1 | IC50 [14]: > 10000 nM; Cmax [15]: 13 ng/mL; half-life [16]: 2.1 h; clearance [17]: 120 mL/min/kg; Activity [18]: Active; Activity [19]: Active; CL/F [20]: 2140 mL/min/kg; Cmax [21]: 716 ng/mL; half-life [22]: 6.04 h; bioavailability [23]: 4.2%; AUC(0-t) [24]: 59 ng·h/mL; Vd [25]: 21.8 L/kg; Kp [26]: 19.3; IC50 [27]: 1420 nM; Vz [28]: 1035.145 L/kg; IC50 [29]: > 10000 nM; AUC(0-t) [30]: 1380 ng·h/mL |
|  | 14.5% | 7.12% | 51.1% | 10.4% | 46.3% | 68.1% | 18.2% | 23.9% | 30.5% | 21.9% | 35.7% | -1.26% | CCN1CCN(Cc2ccc3c(ccn3S(=O)(=O)c3ccc(C(C)C)cc3)c2)CC1 |  |
| 28.2 nM |  |  |  |  |  |  |  |  |  |  |  |  | CCN1CCN(Cc2ccc3c(ccn3S(=O)(=O)c3ccc(Cl)cc3)c2)CC1 |  |
| 11 nM |  |  |  |  |  |  |  |  |  |  |  |  | CCN1CCN(Cc2ccc3c(ccn3S(=O)(=O)c3ccc(C)cc3)c2)CC1 |  |
